This note sets out measurements from patent US11505548B2, “Heterocyclic compounds and their use for treatment of helminthic infections and diseases” (Celgene Corporation, priority 2019, dated 2022).

The subject of the test is Onchocerca gutturosa Adult Male Worms. Nature of the test: Onchocerciasis in vitro screening model, worm motility score. The test is classed as cell-based. To be noted: read-out: O. gutturosa activity level (IC50 or MED).
Where [1] appears, read: Onchocerca gutturosa, Table 1 O. gutturosa, levels A/B/C, motility or MTT readout not specified.
The mark [2] stands for this setting: in vitro, Onchocerca gutturosa adult male worms, class A/B/C.

pIC50: −log10 of the molar value. Where two headings read alike, the source gives them in different places.

As usually defined, the pIC50 is −log10 of the IC50, conventionally taken in molar units. Take `c1ccc(-c2nsc(Nc3ccc(OC4CCNCC4)cn3)n2)nc1` [Cmpd 10, N-(5-(piperidin-4-yloxy)pyridin-2-yl)-3-(pyridin-2-yl)-1,2,4-thiadiazol-5-amine]: the pIC50 under setting [1] is 5.30 to 6.30.

For `CC(C)Oc1ccc(-c2nnc(Nc3ncccc3N(C)C)o2)nc1` [Compound 132, N2-(5-(5-isopropoxy-pyridin-2-yl)-1,3,4-oxadiazol-2-yl)-N3,N3-dimethyl-pyridine-2,3-diamine], the pIC50 under setting [1] was more than 6.70.

For `Cc1cccnc1Nc1nc(-c2cc(C(F)(F)F)c(OC3CC3)cn2)ns1` [Compound 102, 3-(5-cyclo-propoxy-4-(trifluoromethyl)pyridin-2-yl)-N-(3-methyl-pyridin-2-yl)-1,2,4-thiadiazol-5-amine], the pIC50 under setting [1] is 5.30 to 6.30.

Consider `Cc1cccnc1Nc1nc(-c2cc(C(=O)N(C)C)ccn2)ns1` [Compound 22, N,N-dimethyl-2-(5-(3-methylpyridin-2-ylamino)-1,2,4-thiadiazol-3-yl)isonicotinamide], for which, under setting [1], the pIC50 was 5.30 to 6.30.

`CC(=O)N(C)c1cc(C(F)(F)F)cnc1Nc1nc(-c2ncc(OC(C)C)cn2)ns1` [Compound 316, N-(2-(3-(5-isopropoxy-pyrimidin-2-yl)-1,2,4-thiadiazol-5-ylamino)-5-(trifluoromethyl)pyridin-3-yl)-N-methylacetamide]: the pIC50 under setting [2] was 5.30 to 6.30.

For the compound `COc1cnc(Nc2nc(-c3cc(C(=O)N(C)C)c(OC(C)C)cn3)ns2)c(C(F)(F)F)c1` [Compound 264, 5-isopropoxy-2-(5-(5-methoxy-3-(trifluoro-methyl)pyridin-2-ylamino)-1,2,4-thiadiazol-3-yl)-N,N-dimethyliso-nicotinamide], under setting [2], the pIC50 was 5.30 to 6.30.

With `CC(=O)N(C)c1cc(C(F)(F)F)cnc1Nc1nc(-c2ccc(OC(C)C)cn2)ns1` [Compound 247, N-(2-(3-(5-isopropoxy-pyridin-2-yl)-1,2,4-thiadiazol-5-ylamino)-5-(trifluoro-methyl)pyridin-3-yl)-N-methylacetamide], under setting [2], the pIC50 is more than 6.70.

For the compound `CC(C)Oc1cnc(-c2nsc(Nc3ncccc3N(C)C)n2)cn1` [Compound 126, N2-(3-(5-iso-propoxypyrazin-2-yl)-1,2,4-thiadiazol-5-yl)-N3,N3-dimethylpyridine-2,3-diamine], the pIC50 under setting [1] was 5.30 to 6.30.

On to `Cc1cccnc1-c1nsc(Nc2ccc(N3CCCC3)cn2)n1` [Compound 51, 3-(3-methyl-pyridin-2-yl)-N-(5-(pyrrolidin-1-yl)pyridin-2-yl)-1,2,4-thiadiazol-5-amine], for which the pIC50 under setting [1] was more than 6.70.

Consider `COc1ccc(-c2nsc(Nc3ccc(C(F)(F)F)cn3)n2)nc1` [Compound 209, 3-(5-methoxy-pyridin-2-yl)-N-(5-(trifluoromethyl)pyridin-2-yl)-1,2,4-thiadiazol-5-amine], for which, under setting [2], the pIC50 is more than 6.70.

Regarding `CC(C)Oc1ccc(-c2nnc(Nc3cc(C(F)(F)F)c(C(C)C)cn3)o2)nc1` [Compound 154, 5-(5-isoprop-oxypyridin-2-yl)-N-(5-isopropyl-4-(trifluoro-methyl)pyridin-2-yl)-1,3,4-oxadiazol-2-amine], the pIC50 under setting [1] is 6.30 to 6.70.

Regarding `CN1CCC(S(=O)(=O)c2ccc(-c3nsc(Nc4ncccc4N(C)C)n3)nc2)CC1` [Compound 142, N3,N3-dimethyl-N2-(3-(5-(1-methylpiperidin-4-ylsulfonyl)pyridin-2-yl)-1,2,4-thiadiazol-5-yl)pyridine-2,3-diamine], the pIC50 under setting [1] is 5.30 to 6.30.

Regarding `CC(C)Oc1ccc(-c2nsc(Nc3ncccc3N(C)C)n2)nc1` [Compound 56, N2-(3-(5-isoprop-oxypyridin-2-yl)-1,2,4-thiadiazol-5-yl)-N3,N3 - dimethyl-pyridine-2,3-diamine], the pIC50 under setting [1] is 5.30 to 6.30.

For the compound `CNc1nccnc1Nc1nc(-c2cc3ccn(C(C)C)c3cn2)ns1` [Compound 303, N2-(3-(1-isopropyl-1H-pyrrolo[2,3-c]pyridin-5-yl)-1,2,4-thiadiazol-5-yl)-N3-methylpyrazine-2,3-diamine], under setting [2], the pIC50 is more than 6.70.

Turning to `CC(=O)N(C)c1cccnc1Nc1nc(-c2cc3c(cn2)OC(C)(C)C3)ns1` [Compound 271, N-(2-(3-(2,2-dimethyl-2,3-dihydrofuro [2,3-c]pyridin-5-yl)-1,2,4-thiadiazol-5-ylamino)pyridin-3-yl)-N-methylacetamide], the pIC50 under setting [2] was 5.30 to 6.30.

Turning to `Cc1cccnc1Nc1nc(-c2ccc(OC3CCN(C)CC3)cn2)ns1` [Compound 18, 3-(5-(1-methyl-piperidin-4-yloxy)pyridin-2-yl)-N-(3-methylpyridin-2-yl)-1,2,4-thiadiazol-5-amine], the pIC50 under setting [1] was 6.30 to 6.70.

For `CC(=O)N(C)c1nccnc1Nc1nc(-c2ccc(OC(C)C)cn2)ns1` [Compound 313, N-(3-(3-(5-isopropoxypyridin-2-yl)-1,2,4-thiadiazol-5-ylamino)pyrazin-2-yl)-N-methylacetamide], the pIC50 under setting [2] was 5.30 to 6.30.

`Cc1cccnc1-c1nsc(Nc2ccc(C3CCN(C)CC3)cn2)n1` [Compound 49, N-(5-(1-methyl-piperidin-4-yl)pyridin-2-yl)-3-(3-methylpyridin-2-yl)-1,2,4-thiadiazol-5-amine]: the pIC50 under setting [1] is 5.30 to 6.30.

Turning to `FC(F)(F)c1ccc(Nc2nc(-c3cc(OC4CCCCC4)ccn3)ns2)nc1` [Compound 213, 3-(4-(cyclo-hexyloxy)pyridin-2-yl)-N-(5-(trifluoromethyl)pyridin-2-yl)-1,2,4-thiadiazol-5-amine], the negative-log IC50 (pIC50) under setting [2] was more than 6.70.

As for `CC(C)Oc1cnc(-c2nsc(Nc3ncccc3C(=O)N(C)C3CC3)n2)cc1C(F)(F)F` [Compound 263, N-cyclo-propyl-2-(3-(5-isopropoxy-4-(trifluoro-methyl)pyridin-2-yl)-1,2,4-thiadiazol-5-ylamino)-N-methyl-nicotinamide], the pIC50 under setting [2] was 5.30 to 6.30.

For `Cc1cccnc1Nc1nc(-c2ccc(OC3CCN(C)CC3)cn2)n[nH]1` [Compound 71, 3-methyl-N-(3-(5-(1-methyl-piperidin-4-yloxy)pyridin-2-yl)-1H-1,2,4-triazol-5-yl) pyridin-2-amine], under setting [1], the pIC50 is 5.30 to 6.30.

Take `COC(=O)c1cccnc1Nc1nc(-c2ccc(OC(C)C)cn2)ns1` [Compound 276, methyl 2-(3-(5-isopropoxy-pyridin-2-yl)-1,2,4-thiadiazol-5-ylamino) nicotinate]: the pIC50 under setting [2] is 5.30 to 6.30.

For the compound `Cc1cccnc1Nc1nnc(-c2ccc(OC(C)C)cn2)s1` [Compound 64, 5-(5-isopropoxy-pyridin-2-yl)-N-(3-methyl-pyridin-2-yl)-1,3,4-thiadiazol-2-amine], the pIC50 under setting [1] is 5.30 to 6.30.

Regarding `CC(C)Oc1ccc(-c2nsc(Nc3ncc(C(F)(F)F)cc3C(=O)N3CCCC3)n2)nc1` [Compound 328, (2-(3-(5-isoprop-oxypyridin-2-yl)-1,2,4-thiadiazol-5-ylamino)-5-(trifluoromethyl)pyridin-3-yl)(pyrrolidin-l-yl)methanone], the pIC50 under setting [2] was 5.30 to 6.30.

Turning to `CC(=O)N(C)c1cccnc1Nc1nc(-c2ccc(OC3CCOCC3)cn2)ns1` [Compound 199, N-methyl-N-(2-(3-(5-(tetrahydro-2H-pyran-4-yloxy)pyridin-2-yl)-1,2,4-thiadiazol-5-ylamino)pyridin-3-yl)acetamide], under setting [2], the pIC50 is 5.30 to 6.30.

`Cc1cccnc1Nc1nc(-c2ccc(OC3CCOCC3)cn2)ns1` [Compound 15, N-(3-methyl-pyridin-2-yl)-3-(5-(tetrahydro-2H-pyran-4-yloxy)pyridin-2-yl)-1,2,4-thiadiazol-5-amine]: the pIC50 under setting [1] was more than 6.70.

As for `COc1cc(C(C)C)cnc1Nc1nc(-c2ccc(OC(C)C)cn2)ns1` [Compound 166, 3-(5-isopropoxy-pyridin-2-yl)-N-(5-isopropyl-3-methoxypyridin-2-yl)-1,2,4-thiadiazol-5-amine], the pIC50 under setting [1] is more than 6.70.

For the compound `CC(C)Oc1ccc(-c2nsc(Nc3ncc(C(F)(F)F)cc3N3CCCC3=O)n2)nc1` [Compound 312, 1-(2-(3-(5-isopropoxypyridin-2-yl)-1,2,4-thiadiazol-5-ylamino)-5-(trifluoromethyl)pyridin-3-yl)pyrrolidin-2-one], the pIC50 under setting [2] is 5.30 to 6.30.

As for `Cc1cccnc1Nc1nc(-c2cc(C(=O)N(C)C)c(OC(C)C)cn2)ns1` [Compound 192, 5-isopropoxy-N,N-dimethyl-2-(5-(3-methylpyridin-2-ylamino)-1,2,4-thiadiazol-3-yl)isonicotin-amide], the pIC50 under setting [1] is 5.30 to 6.30.

Consider `FC(F)(F)c1cccnc1Nc1nc(-c2cc(C3CC3)ccn2)ns1` [Compound 84, 3-(4-cyclopropyl-pyridin-2-yl)-N-(3-(trifluoromethyl)pyridin-2-yl)-1,2,4-thiadiazol-5-amine], for which, under setting [1], the pIC50 is more than 6.70.

For `CC(C)Oc1ccc(-c2nsc(Nc3ncccc3N(C)C(=O)C(C)C)n2)nc1` [Compound 169, N-(2-(3-(5-isopropoxy-pyridin-2-yl)-1,2,4-thiadiazol-5-ylamino)pyridin-3-yl)-N-methyliso-butyramide], the pIC50 under setting [1] was 6.30 to 6.70.

As for `Cc1cccnc1N(c1nc(-c2ccc(OC(C)C)cn2)ns1)C(C)C` [Compound 138, 3-(5-isoprop-oxypyridin-2-yl)-N-isopropyl-N-(3-methylpyridin-2-yl)-1,2,4-thiadiazol-5-amine], the pIC50 under setting [1] was 5.30 to 6.30.

Turning to `CC(C)Oc1ccnc(-c2nc(Nc3cc(C(F)(F)F)c(C(C)C)cn3)nn2C)c1` [Compound 146, N-(5-(4-isoprop-oxypyridin-2-yl)-1-methyl-1H-1,2,4-triazol-3-yl)-5-isopropyl-4-(trifluoro-methyl) pyridin-2-amine], the pIC50 under setting [1] is 5.30 to 6.30.

On to `CC(=O)N(C)c1cc(C(F)(F)F)cnc1Nc1nc(-c2cc(OC3CCOCC3)ccn2)ns1` [Compound 306, N-methyl-N-(2-(3-(4-(tetrahydro-2H-pyran-4-yloxy)pyridin-2-yl)-1,2,4-thiadiazol-5-ylamino)-5-(trifluoromethyl)pyridin-3-yl)acetamide], for which, under setting [2], the pIC50 is more than 6.70.

As to `CC(C)c1cnc(Nc2nc(-c3cc4c(cn3)N(C)CC4)ns2)cc1C(F)(F)F` [Compound 322, N-(5-isopropyl-4-(trifluoromethyl)pyridin-2-yl)-3-(1-methyl-2,3-dihydro-1H-pyrrolo[2,3-c]pyridin-5-yl)-1,2,4-thiadiazol-5-amine], under setting [2], the pIC50 was more than 6.70.
